Data taken from patent US9120812B2, “Pyrimidooxazocine derivatives as mTOR-inhibitors” (SANOFI, priority 2012, dated 2015).

What was measured:
[1] = target: mTOR (human recombinant aa mTOR 1360-2549) (Homo sapiens (Human), UniProt P42345); assay: mTOR enzymatic test by TR-FRET (phosphorylation of GFP-4EBP1); assay type: biochemical
Procedure, shortened: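 TR-FRET detection of GFP-4EBP1 phosphorylation by a terbium-labelled anti-phospho-Thr46 antibody. Kinase reaction ran 30 min at room temperature, was quenched with EDTA (10 mM final) plus Tb-antibody (2 nM final) and left 60 min. Emission at 520 and 490 nm after 340 nm excitation, reported as the 520/490 ratio.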

U87MG tumour cells = assay: Test of in vitro proliferation of U87MG tumour cells; assay type: cell-based; details: Homo sapiens, U-87 MG, 72 h, U87MG cells, 72 hours; read-out: U87 Cell Proliferation IC50
Method: Model 4: Test of in vitro Proliferation of U87MG Tumour Cells.
The cell growth is determined with the reagent CellTiter 96 AQueous One Solution Cell Proliferation Assay from Promega (Cat. No. G3581).

PI3Kα (p110α/p85α) = PI3Kα (p110α/p85α) (Homo sapiens (Human), UniProt P42336); assay: PI3Kα enzymatic test by measuring the consumption of ATP; assay type: biochemical
PI3Kα (p110α/p85α), sequence (P42336 whole entry): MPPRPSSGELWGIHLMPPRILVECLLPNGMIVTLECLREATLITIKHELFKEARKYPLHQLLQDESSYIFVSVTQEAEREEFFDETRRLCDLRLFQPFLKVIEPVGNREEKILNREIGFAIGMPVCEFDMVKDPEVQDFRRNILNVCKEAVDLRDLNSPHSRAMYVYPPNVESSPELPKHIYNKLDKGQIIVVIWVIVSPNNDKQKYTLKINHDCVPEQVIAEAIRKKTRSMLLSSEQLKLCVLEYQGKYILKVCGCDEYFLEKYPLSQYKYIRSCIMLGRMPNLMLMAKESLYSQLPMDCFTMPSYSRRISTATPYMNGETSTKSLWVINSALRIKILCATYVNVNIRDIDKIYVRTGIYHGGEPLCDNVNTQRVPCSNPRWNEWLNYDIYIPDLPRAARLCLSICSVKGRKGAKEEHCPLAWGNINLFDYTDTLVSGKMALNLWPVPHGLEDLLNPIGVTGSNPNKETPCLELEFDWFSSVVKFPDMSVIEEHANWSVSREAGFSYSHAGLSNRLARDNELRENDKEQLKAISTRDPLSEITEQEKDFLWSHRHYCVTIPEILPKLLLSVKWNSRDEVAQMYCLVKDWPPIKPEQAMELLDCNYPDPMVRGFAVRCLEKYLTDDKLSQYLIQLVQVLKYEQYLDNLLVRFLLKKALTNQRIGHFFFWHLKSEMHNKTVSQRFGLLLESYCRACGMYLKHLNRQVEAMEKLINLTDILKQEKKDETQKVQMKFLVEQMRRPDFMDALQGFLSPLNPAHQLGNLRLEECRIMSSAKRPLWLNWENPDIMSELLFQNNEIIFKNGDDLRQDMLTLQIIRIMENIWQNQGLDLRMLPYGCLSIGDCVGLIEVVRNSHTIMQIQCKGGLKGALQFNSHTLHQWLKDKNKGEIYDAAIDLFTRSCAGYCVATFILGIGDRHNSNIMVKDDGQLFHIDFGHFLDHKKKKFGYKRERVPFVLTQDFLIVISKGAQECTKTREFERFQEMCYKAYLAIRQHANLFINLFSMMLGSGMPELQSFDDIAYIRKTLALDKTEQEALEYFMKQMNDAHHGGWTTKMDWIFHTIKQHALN
PI3Kα (p110α/p85α), sequence (P27986 whole entry partner): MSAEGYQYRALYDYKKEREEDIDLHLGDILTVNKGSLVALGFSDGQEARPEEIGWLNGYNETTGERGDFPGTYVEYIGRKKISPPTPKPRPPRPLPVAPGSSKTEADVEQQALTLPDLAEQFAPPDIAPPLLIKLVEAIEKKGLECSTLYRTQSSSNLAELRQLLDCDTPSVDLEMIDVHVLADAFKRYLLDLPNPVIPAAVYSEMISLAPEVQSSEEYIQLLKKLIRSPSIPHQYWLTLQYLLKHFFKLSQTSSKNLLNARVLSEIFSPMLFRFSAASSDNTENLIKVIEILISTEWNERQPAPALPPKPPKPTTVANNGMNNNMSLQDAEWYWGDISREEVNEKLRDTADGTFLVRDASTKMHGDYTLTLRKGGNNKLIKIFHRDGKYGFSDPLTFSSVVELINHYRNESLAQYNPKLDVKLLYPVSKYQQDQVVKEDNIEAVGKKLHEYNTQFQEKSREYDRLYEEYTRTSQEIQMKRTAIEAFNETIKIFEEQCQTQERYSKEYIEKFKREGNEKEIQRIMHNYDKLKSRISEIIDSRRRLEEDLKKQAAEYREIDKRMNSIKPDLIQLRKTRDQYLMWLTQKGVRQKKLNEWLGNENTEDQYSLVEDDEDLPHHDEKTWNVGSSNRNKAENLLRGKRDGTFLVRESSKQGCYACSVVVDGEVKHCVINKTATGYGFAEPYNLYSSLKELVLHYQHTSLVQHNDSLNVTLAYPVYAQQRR
Procedure, shortened: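 p110α/p85α (1.7 μg/ml) with 50 μM PIP2 and 2 μM ATP in pH 7.5 Tris buffer with EGTA, MgCl2, Chaps, DTT; reaction 90 min. Remaining ATP measured by luciferin/luciferase luminescence; IC50 from threefold serial dilutions spanning at least 10 000-fold.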

Akt-pS473 in U87MG cells = details: Homo sapiens, U-87 MG, read-out: U87 Akt-pS473 % Inhibition or IC50, nM (IC50), U87MG cells
Method: Model 3: Cellular Test of Phosphorylation of the Epitope S473 of the Akt Protein on the U87MG Line Via an ELISA Test
An electrochemiluminescence signal is generated by a ruthenium-labelled anti-rabbit antibody.
After culturing for 16-20 hours (the cells are at 100% of confluence) at 37° C. under 5% CO2, 1 μl of the chemical compounds in 100% DMSO (1% DMSO final concentration on the cells) is added. The cells are incubated with the compounds for 3 hours at 37° C. under 5% CO2.
The free sites are blocked with 150 μl/well of a buffer of 50 mM Tris pH 7.5, 0.15 M NaCl, 0.02% Tween 20, 3% BSA with stirring at 450 rpm for 1 hour at room temperature, followed by a step of washing with 3×300 μl of a buffer of 50 mM Tris pH 7.5, 0.15 M NaCl, 0.02% Tween 20.
15 μl of cell lysate are mixed with 15 μl of a 50 mM buffer of Tris pH 7.5, 0.15 M NaCl, 0.02% Tween 20, 1% BSA in a precoated ELISA plate (see above), and incubated for 1 hour at room temperature with stirring, followed by a step of washing with 3×300 μl of a buffer of 50 mM Tris pH 7.5, 0.15 M NaCl, 0.02% Tween 20. The pS473 epitope of Akt is detected with a rabbit polyclonal antibody (Cell Signaling, SC9271), diluted 100-fold in 50 mM Tris pH 7.5, 0.15 M NaCl, 0.02% Tween 20, 1% BSA, 25 μl/well (incubation for 1 hour at room temperature with stirring at 450 rpm).
After washing (see above), revelation is performed with a ruthenium-labelled anti-rabbit antibody (MSD R32AB1), diluted 3000-fold in a 50 mM buffer of Tris pH 7.5, 0.15 M NaCl, 0.02% Tween 20, 1% BSA, 25 μl/well, followed by incubation for 1 hour at room temperature with stirring at 450 rpm, and the plates are covered with aluminium.
After a further washing step, the plates are emptied and 150 μl of MSD Read Buffer T diluted fourfold with water are added. The electrochemiluminescence is measured on the MSD Sector Imager 6000.

mTOR (human recombinant aa mTOR 1360-2549), sequence (P42345 1360-2549): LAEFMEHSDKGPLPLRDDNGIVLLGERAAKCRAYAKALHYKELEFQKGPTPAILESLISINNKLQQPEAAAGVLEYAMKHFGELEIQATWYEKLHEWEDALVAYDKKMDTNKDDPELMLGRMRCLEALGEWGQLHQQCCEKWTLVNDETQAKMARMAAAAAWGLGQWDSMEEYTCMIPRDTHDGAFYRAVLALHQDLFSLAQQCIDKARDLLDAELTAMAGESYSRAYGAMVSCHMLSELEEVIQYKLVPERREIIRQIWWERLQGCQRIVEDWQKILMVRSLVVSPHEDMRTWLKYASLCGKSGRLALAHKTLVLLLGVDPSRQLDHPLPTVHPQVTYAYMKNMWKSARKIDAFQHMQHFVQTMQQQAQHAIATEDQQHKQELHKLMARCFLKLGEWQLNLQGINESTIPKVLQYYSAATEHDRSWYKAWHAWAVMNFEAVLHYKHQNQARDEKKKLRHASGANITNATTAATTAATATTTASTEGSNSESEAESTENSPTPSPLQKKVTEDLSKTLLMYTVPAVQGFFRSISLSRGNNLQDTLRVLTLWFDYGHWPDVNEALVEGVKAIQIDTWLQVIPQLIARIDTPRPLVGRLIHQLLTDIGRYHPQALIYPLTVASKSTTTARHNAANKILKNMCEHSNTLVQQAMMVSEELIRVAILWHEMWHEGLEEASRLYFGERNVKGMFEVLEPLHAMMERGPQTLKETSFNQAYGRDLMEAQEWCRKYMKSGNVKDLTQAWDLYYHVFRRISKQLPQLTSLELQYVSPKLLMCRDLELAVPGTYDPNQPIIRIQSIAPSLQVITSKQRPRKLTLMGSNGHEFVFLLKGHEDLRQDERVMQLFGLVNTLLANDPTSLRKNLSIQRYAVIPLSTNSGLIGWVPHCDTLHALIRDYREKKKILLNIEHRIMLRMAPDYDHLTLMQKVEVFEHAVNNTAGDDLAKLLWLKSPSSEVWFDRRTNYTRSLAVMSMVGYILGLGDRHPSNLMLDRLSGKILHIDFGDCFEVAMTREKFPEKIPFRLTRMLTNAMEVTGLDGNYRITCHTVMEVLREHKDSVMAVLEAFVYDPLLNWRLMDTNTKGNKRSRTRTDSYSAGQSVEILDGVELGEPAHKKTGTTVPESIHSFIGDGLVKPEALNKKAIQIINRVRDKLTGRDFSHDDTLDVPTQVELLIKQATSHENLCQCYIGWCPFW

CCN1CC(C)(C)Oc2nc(N3CC4CCC(C3)O4)nc(-c3ccc(NC(=O)Nc4ccc(OCCOC)cn4)cc3)c2C1=O [Example 40, 1-{4-[6-Ethyl-8,8-dimethyl-2-(8-oxa-3-azabicyclo[3.2.1]oct-3-yl)-5-oxo-5,6,7,8-tetrahydro-9-oxa-1,3,6-triazabenzocyclohepten-4-yl]phenyl}-3-[5-(2-methoxyethoxy)pyridin-2-yl]urea]
IC50 [1]: 56 nM
IC50 (U87MG tumour cells): 274 nM
PI3Ka IC50 (PI3Kα (p110α/p85α)): >10000 nM
IC50 (Akt-pS473 in U87MG cells): 59 nM

CN1CC(C)(C)Oc2nc(N3C4CCC3COC4)nc(-c3ccc(NC(=O)Nc4ccccn4)cc3)c2C1=O [Example 41, 1-Pyridin-2-yl-3-{4-[6,8,8-trimethyl-2-(3-oxa-8-azabicyclo[3.2.1]oct-8-yl)-5-oxo-5,6,7,8-tetrahydro-9-oxa-1,3,6-triazabenzocyclohepten-4-yl]phenyl}urea]
IC50 [1]: 35 nM
IC50 (U87MG tumour cells): 122 nM
PI3Ka IC50 (PI3Kα (p110α/p85α)): >10000 nM
IC50 (Akt-pS473 in U87MG cells): 31 nM

Cc1ccc(NC(=O)Nc2ccc(-c3nc(N4CC5CCC(C4)O5)nc4c3C(=O)N(C)CC(C)(C)O4)cc2)nc1 [Example 42, 1-(5-Methylpyridin-2-yl)-3-{4-[6,8,8-trimethyl-2-(8-oxa-3-azabicyclo[3.2.1]oct-3-yl)-5-oxo-5,6,7,8-tetrahydro-9-oxa-1,3,6-triazabenzocyclohepten-4-yl]phenyl}urea]
IC50 [1]: 43 nM
IC50 (U87MG tumour cells): 350 nM
PI3Ka IC50 (PI3Kα (p110α/p85α)): >10000 nM
IC50 (Akt-pS473 in U87MG cells): 52 nM

CNC(=O)Nc1ccc(-c2nc(N3C4CCC3COC4)nc3c2C(=O)N(C)CC(C)(C)O3)cc1 [Example 43, 1-Methyl-3-{4-[6,8,8-trimethyl-2-(3-oxa-8-azabicyclo[3.2.1]oct-8-yl)-5-oxo-5,6,7,8-tetrahydro-9-oxa-1,3,6-triazabenzocyclohepten-4-yl]phenyl}urea]
IC50 [1]: 27 nM
IC50 (U87MG tumour cells): 82 nM
PI3Ka IC50 (PI3Kα (p110α/p85α)): 4730 nM
IC50 (Akt-pS473 in U87MG cells): 20 nM

CCN1CC(C)(C)Oc2nc(N3CC4CCC(C3)O4)nc(-c3ccc(NC(=O)Nc4ccc(OC)cn4)cc3)c2C1=O [Example 44, 1-{4-[6-Ethyl-8,8-dimethyl-2-(8-oxa-3-azabicyclo[3.2.1]oct-3-yl)-5-oxo-5,6,7,8-tetrahydro-9-oxa-1,3,6-triazabenzocyclohepten-4-yl]phenyl}-3-(5-methoxypyridin-2-yl)urea]
IC50 [1]: 34 nM
IC50 (U87MG tumour cells): 220 nM
PI3Ka IC50 (PI3Kα (p110α/p85α)): >10000 nM
IC50 (Akt-pS473 in U87MG cells): 40 nM

CNC(=O)Nc1ccc(-c2nc(N3CC4CCC(C3)O4)nc3c2C(=O)N(C)CC(C)(C)O3)cc1F [Example 45, 1-{2-Fluoro-4-[6,8,8-trimethyl-2-(8-oxa-3-azabicyclo[3.2.1]oct-3-yl)-5-oxo-5,6,7,8-tetrahydro-9-oxa-1,3,6-triazabenzocyclohepten-4-yl]phenyl}-3-methylurea]
IC50 [1]: 24 nM
IC50 (U87MG tumour cells): 85 nM
PI3Ka IC50 (PI3Kα (p110α/p85α)): 4000 nM
IC50 (Akt-pS473 in U87MG cells): 32 nM

CNC(=O)Nc1ccc(-c2nc(N3C4CCC3COC4)nc3c2C(=O)N(C)CC(C)(C)O3)cc1F [Example 46, 1-{2-Fluoro-4-[6,8,8-trimethyl-2-(3-oxa-8-azabicyclo[3.2.1]oct-8-yl)-5-oxo-5,6,7,8-tetrahydro-9-oxa-1,3,6-triazabenzocyclohepten-4-yl]phenyl}-3-methylurea]
IC50 [1]: 26 nM
IC50 (U87MG tumour cells): 90 nM
PI3Ka IC50 (PI3Kα (p110α/p85α)): 8880 nM
IC50 (Akt-pS473 in U87MG cells): 24 nM

CCN1CC(C)(C)Oc2nc(N3CC4CCC(C3)O4)nc(-c3ccc(NC(=O)NC)cc3F)c2C1=O [Example 47, 1-{4-[6-Ethyl-8,8-dimethyl-2-(8-oxa-3-azabicyclo[3.2.1]oct-3-yl)-5-oxo-5,6,7,8-tetrahydro-9-oxa-1,3,6-triazabenzocyclohepten-4-yl]-3-fluorophenyl}-3-methylurea]
IC50 [1]: 34 nM
IC50 (U87MG tumour cells): 564 nM
PI3Ka IC50 (PI3Kα (p110α/p85α)): >10000 nM
IC50 (Akt-pS473 in U87MG cells): 151 nM

Cc1ccc(NC(=O)Nc2ccc(-c3nc(N4C5CCC4COC5)nc4c3C(=O)N(C)CC(C)(C)O4)cc2)nc1 [Example 48, 1-(5-Methylpyridin-2-yl)-3-{4-[6,8,8-trimethyl-2-(3-oxa-8-azabicyclo[3.2.1]oct-8-yl)-5-oxo-5,6,7,8-tetrahydro-9-oxa-1,3,6-triazabenzocyclohepten-4-yl]phenyl}urea]
IC50 [1]: 47 nM
IC50 (U87MG tumour cells): 185 nM
PI3Ka IC50 (PI3Kα (p110α/p85α)): >10000 nM
IC50 (Akt-pS473 in U87MG cells): 86 nM

COc1ccc(NC(=O)Nc2ccc(-c3nc(N4C5CCC4COC5)nc4c3C(=O)N(C)CC(C)(C)O4)cc2)nc1 [Example 49, 1-(5-Methoxypyridin-2-yl)-3-{4-[6,8,8-trimethyl-2-(3-oxa-8-azabicyclo[3.2.1]oct-8-yl)-5-oxo-5,6,7,8-tetrahydro-9-oxa-1,3,6-triazabenzocyclohepten-4-yl]phenyl}urea]
IC50 [1]: 32 nM
IC50 (U87MG tumour cells): 155 nM
PI3Ka IC50 (PI3Kα (p110α/p85α)): >10000 nM
IC50 (Akt-pS473 in U87MG cells): 21 nM

CCN1CC(C)(C)Oc2nc(N3C4CCC3COC4)nc(-c3ccc(NC(=O)Nc4cccnc4)c(F)c3)c2C1=O [Example 50, 1-{4-[6-Ethyl-8,8-dimethyl-2-(3-oxa-8-azabicyclo[3.2.1]oct-8-yl)-5-oxo-5,6,7,8-tetrahydro-9-oxa-1,3,6-triazabenzocyclohepten-4-yl]-2-fluorophenyl}-3-pyridin-3-ylurea]
IC50 [1]: 39 nM
IC50 (U87MG tumour cells): 40 nM
PI3Ka IC50 (PI3Kα (p110α/p85α)): 2870 nM
IC50 (Akt-pS473 in U87MG cells): 7 nM

CCN1CC(C)(C)Oc2nc(N3C4CCC3COC4)nc(-c3ccc(NC(=O)Nc4ccncc4)c(F)c3)c2C1=O [Example 51, 1-{4-[6-Ethyl-8,8-dimethyl-2-(3-oxa-8-azabicyclo[3.2.1]oct-8-yl)-5-oxo-5,6,7,8-tetrahydro-9-oxa-1,3,6-triazabenzocyclohepten-4-yl]-2-fluorophenyl}-3-pyridin-4-ylurea]
IC50 [1]: 20 nM
IC50 (U87MG tumour cells): 12 nM
PI3Ka IC50 (PI3Kα (p110α/p85α)): 1900 nM
IC50 (Akt-pS473 in U87MG cells): 14 nM

CCN1CC(C)(C)Oc2nc(N3CC4CCC(C3)O4)nc(-c3ccc(NC(=O)Nc4ccncc4)c(F)c3)c2C1=O [Example 52, 1-{4-[6-Ethyl-8,8-dimethyl-2-(8-oxa-3-azabicyclo[3.2.1]oct-3-yl)-5-oxo-5,6,7,8-tetrahydro-9-oxa-1,3,6-triazabenzocyclohepten-4-yl]-2-fluorophenyl}-3-pyridin-4-ylurea]
IC50 [1]: 18 nM
IC50 (U87MG tumour cells): 29 nM
PI3Ka IC50 (PI3Kα (p110α/p85α)): 1710 nM
IC50 (Akt-pS473 in U87MG cells): 16 nM

CCN1CC(C)(C)Oc2nc(N3CCOC[C@@H]3C)nc(-c3ccc(NC(=O)O[C@H]4CCC[C@H]4O)cc3)c2C1=O [Example 53, {4-[6-Ethyl-8,8-dimethyl-2-((S)-3-methylmorpholin-4-yl)-5-oxo-5,6,7,8-tetrahydro-9-oxa-1,3,6-triazabenzocyclohepten-4-yl]phenyl}carbamic acid (1S,2R)-2-hydroxycyclopentyl ester]
IC50 [1]: 222 nM
IC50 (U87MG tumour cells): 2160 nM
PI3Ka IC50 (PI3Kα (p110α/p85α)): >10000 nM
IC50 (Akt-pS473 in U87MG cells): 555 nM

COc1ccc(NC(=O)Nc2ccc(-c3nc(N4CC5CCC(C4)O5)nc4c3C(=O)N(C)CC(C)(C)O4)cc2)nc1 [Example 54, 1-(5-Methoxypyridin-2-yl)-3-{4-[6,8,8-trimethyl-2-(8-oxa-3-azabicyclo[3.2.1]oct-3-yl)-5-oxo-5,6,7,8-tetrahydro-9-oxa-1,3,6-triazabenzocyclohepten-4-yl]phenyl}urea]
IC50 [1]: 32 nM
IC50 (U87MG tumour cells): 161 nM
PI3Ka IC50 (PI3Kα (p110α/p85α)): 3000 nM
IC50 (Akt-pS473 in U87MG cells): 41 nM

CCN1CC(C)(C)Oc2nc(N3C4CCC3COC4)nc(-c3ccc(NC(=O)Nc4ccnc(C)c4)c(F)c3)c2C1=O [Example 55, 1-{4-[6-Ethyl-8,8-dimethyl-2-(3-oxa-8-azabicyclo[3.2.1]oct-8-yl)-5-oxo-5,6,7,8-tetrahydro-9-oxa-1,3,6-triazabenzocyclohepten-4-yl]-2-fluorophenyl}-3-(2-methylpyridin-4-yl)urea]
IC50 [1]: 66 nM
IC50 (U87MG tumour cells): 54 nM
PI3Ka IC50 (PI3Kα (p110α/p85α)): 4810 nM
IC50 (Akt-pS473 in U87MG cells): 27 nM

CCN1CC(C)(C)Oc2nc(N3CC4CCC(C3)O4)nc(-c3ccc(NC(=O)Nc4ccnc(C)c4)c(F)c3)c2C1=O [Example 56, 1-{4-[6-Ethyl-8,8-dimethyl-2-(8-oxa-3-azabicyclo[3.2.1]oct-3-yl)-5-oxo-5,6,7,8-tetrahydro-9-oxa-1,3,6-triazabenzocyclohepten-4-yl]-2-fluorophenyl}-3-(2-methylpyridin-4-yl)urea]
IC50 [1]: 41 nM
IC50 (U87MG tumour cells): 57 nM
PI3Ka IC50 (PI3Kα (p110α/p85α)): 3230 nM
IC50 (Akt-pS473 in U87MG cells): 26 nM

CCN1CC(C)(C)Oc2nc(N3CC4CCC(C3)O4)nc(-c3ccc(NC(=O)Nc4cc(C)nc(C)c4)c(F)c3)c2C1=O [Example 58, 1-(2,6-Dimethylpyridin-4-yl)-3-{4-[6-ethyl-8,8-dimethyl-2-(8-oxa-3-azabicyclo[3.2.1]oct-3-yl)-5-oxo-5,6,7,8-tetrahydro-9-oxa-1,3,6-triazabenzocyclohepten-4-yl]-2-fluorophenyl}urea]
IC50 [1]: 28 nM
IC50 (U87MG tumour cells): 71 nM
PI3Ka IC50 (PI3Kα (p110α/p85α)): 9470 nM
IC50 (Akt-pS473 in U87MG cells): 20 nM
